Results taken from article PMC10584170, “Machine learning-based phenotypic imaging to characterise the targetable biology of Plasmodium falciparum male gametocytes for the development of transmission-blocking antimalarials” (PLOS Pathogens, 2023).

Tests used:
[1] = tested on: P. falciparum female gametocytes; assay: P. falciparum Dual Gamete Formation Assay (PfDGFA), female readout (Pfs25-positive female gametes); type: cell-based, Plasmodium falciparum NF54; conditions: for Average inhibition female (%): average of replicates; for % inhibition female (individual replicates) R1: replicate R1; for % inhibition female (individual replicates) R3: replicate R3; for % inhibition female (individual replicates) R4: replicate R4
In short: (§1)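 Read-outs are automated image counts of exflagellation centres (brightfield, 10 frames over 1 s) and Pfs25-positive female gametes (Cy3 fluorescence).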

[2] = tested on: P. falciparum male gametocytes; assay: P. falciparum Dual Gamete Formation Assay (PfDGFA), male readout (exflagellation); type: cell-based, Plasmodium falciparum NF54; conditions: for Average inhibition male (%): average of replicates; for % inhibition male (individual replicates) R1: replicate R1; for % inhibition male (individual replicates) R3: replicate R3; for % inhibition male (individual replicates) R4: replicate R4; for Activity: hit = >50% inhibition in male or female readout in at least 3 replicates, 0 = no class assigned
In short: as §1

[3] = 2µM, 24h preincubation with gametocytes prior to induction of gametogenesis
[4] = 2µM, 24h preincubation, number of replicates with >50% inhibition in the female readout
[5] = 2µM, 24h preincubation, number of replicates with >50% inhibition in the male readout
[6] = PfDGFA at 2µM, 24h preincubation with gametocytes prior to induction of gametogenesis
[7] = PfDGFA at 2µM, 24h preincubation
[8] = PfDGFA at 2µM, 24h preincubation with gametocytes
[9] = 2µM, 24h preincubation, hits selected on >50% inhibition in the female readout across replicates
[10] = 2µM, 24h preincubation, hits selected on >50% inhibition in the male readout across replicates

Br.CCCCCCCNCCNc1cc(C)nc2ccccc12 [TCMDC-137556]
Average inhibition female (%) [1, 3]: 18.1%
% inhibition female (individual replicates) R1 [1, 3]: 25.7%
% inhibition female (individual replicates) R3 [1, 3]: 0.5%
% inhibition female (individual replicates) R4 [1, 3]: 18.7%
HitlevelF [1, 4]: 0
Average inhibition male (%) [2, 3]: 11.5%
% inhibition male (individual replicates) R1 [2, 3]: 12.4%
% inhibition male (individual replicates) R3 [2, 3]: 4.0%
% inhibition male (individual replicates) R4 [2, 3]: 8.2%
HitlevelM [2, 5]: 0

COc1cccc2c(O)c(CNC3CCCCC3)ccc12.Cl [TCMDC-137595]
% inhibition female (individual replicates) R1 [1, 6]: -8.7%
% inhibition female (individual replicates) R3 [1, 6]: -13.9%
% inhibition female (individual replicates) R4 [1, 6]: -3.5%
Average inhibition female (%) [1, 7]: -7.6%
% inhibition male (individual replicates) R1 [2, 6]: -3.5%
% inhibition male (individual replicates) R3 [2, 6]: 3.4%
% inhibition male (individual replicates) R4 [2, 6]: 4.2%
Average inhibition male (%) [2, 7]: 3.3%

COc1ccc(CNCCCCCCNCc2ccc(OC)c3ccccc23)c2ccccc12.Cl [TCMDC-137631]
Average inhibition female (%) [1, 8]: 47.3%
% inhibition female (individual replicates) R1 [1, 8]: 36.3%
% inhibition female (individual replicates) R3 [1, 8]: 33.7%
% inhibition female (individual replicates) R4 [1, 8]: 34.7%
HitlevelF ([1]; number of replicates with >50% inhibition in the female readout, 2µM): 1
Average inhibition male (%) [2, 8]: 83.3%
% inhibition male (individual replicates) R1 [2, 8]: 71.0%
% inhibition male (individual replicates) R3 [2, 8]: 73.6%
% inhibition male (individual replicates) R4 [2, 8]: 100.9%
HitlevelM ([2]; number of replicates with >50% inhibition in the male readout, 2µM): 4

Cc1nc2nc(N)nc(N)c2c(C)c1Cc1cccc(C#N)c1.Cl [TCMDC-137646]
% inhibition female (individual replicates) R1 [1, 6]: -3.5%
% inhibition female (individual replicates) R3 [1, 6]: -14.6%
% inhibition female (individual replicates) R4 [1, 6]: 5.5%
Average inhibition female (%) [1, 7]: -8.2%
% inhibition male (individual replicates) R1 [2, 6]: 10.9%
% inhibition male (individual replicates) R3 [2, 6]: 34.4%
% inhibition male (individual replicates) R4 [2, 6]: 21.2%
Average inhibition male (%) [2, 7]: 19.8%

Cc1ccc(Cc2c(C)nc3nc(N)nc(N)c3c2C)cc1.Cl [TCMDC-137657]
% inhibition female (individual replicates) R1 [1, 6]: -6.6%
% inhibition female (individual replicates) R3 [1, 6]: 8.8%
% inhibition female (individual replicates) R4 [1, 6]: -7.7%
Average inhibition female (%) [1, 7]: -3.5%
% inhibition male (individual replicates) R1 [2, 6]: 13.2%
% inhibition male (individual replicates) R3 [2, 6]: 20.3%
% inhibition male (individual replicates) R4 [2, 6]: 13.4%
Average inhibition male (%) [2, 7]: 14.9%

Cc1nc2nc(N)nc(N)c2c(C)c1Cc1ccccc1Cl.Cl [TCMDC-137668]
Average inhibition female (%) [1, 3]: 9.8%
% inhibition female (individual replicates) R1 [1, 3]: 18.7%
% inhibition female (individual replicates) R3 [1, 3]: -14.7%
% inhibition female (individual replicates) R4 [1, 3]: 32.6%
HitlevelF [1, 9]: 0
Average inhibition male (%) [2, 3]: 0.635%
% inhibition male (individual replicates) R1 [2, 3]: 24.9%
% inhibition male (individual replicates) R3 [2, 3]: -5.5%
% inhibition male (individual replicates) R4 [2, 3]: -27.1%
HitlevelM [2, 10]: 0
Activity [2, 7]: 0

CC(C)N(Cc1cnc2nc(N)nc(N)c2n1)c1ccc(Cl)c(Cl)c1 [TCMDC-137675]
% inhibition female (individual replicates) R1 [1, 6]: 8.3%
% inhibition female (individual replicates) R3 [1, 6]: -2.9%
% inhibition female (individual replicates) R4 [1, 6]: 6.8%
Average inhibition female (%) [1, 7]: 1.4%
% inhibition male (individual replicates) R1 [2, 6]: 8.1%
% inhibition male (individual replicates) R3 [2, 6]: 1.6%
% inhibition male (individual replicates) R4 [2, 6]: -34.5%
Average inhibition male (%) [2, 7]: -1.6%

COc1ccc(N(C)Cc2cnc3nc(N)nc(N)c3n2)cc1 [TCMDC-137682]
% inhibition female (individual replicates) R1 [1, 6]: 1.5%
% inhibition female (individual replicates) R3 [1, 6]: 1.9%
% inhibition female (individual replicates) R4 [1, 6]: 1.8%
Average inhibition female (%) [1, 7]: 3.6%
% inhibition male (individual replicates) R1 [2, 6]: 16.6%
% inhibition male (individual replicates) R4 [2, 6]: -18.5%
Average inhibition male (%) [2, 7]: 5.0%

CCCc1cc(Cc2cnc(N)nc2N)cc(CCC)c1O.Cl [TCMDC-137695]
% inhibition female (individual replicates) R1 [1, 6]: -0.04%
% inhibition female (individual replicates) R3 [1, 6]: -0.32%
% inhibition female (individual replicates) R4 [1, 6]: -11.2%
Average inhibition female (%) [1, 7]: -4.4%
% inhibition male (individual replicates) R1 [2, 6]: 13.3%
% inhibition male (individual replicates) R3 [2, 6]: -2.6%
% inhibition male (individual replicates) R4 [2, 6]: -24.5%
Average inhibition male (%) [2, 7]: -1.8%

Cc1cc(N2C(N)=NC(N)=NC2(C)C)ccc1Cl.Cl [TCMDC-137705]
Average inhibition female (%) [1, 3]: 4.4%
% inhibition female (individual replicates) R1 [1, 3]: 16.7%
% inhibition female (individual replicates) R3 [1, 3]: -1.9%
% inhibition female (individual replicates) R4 [1, 3]: -1.7%
HitlevelF [1, 9]: 0
Average inhibition male (%) [2, 3]: -12.7%
% inhibition male (individual replicates) R1 [2, 3]: 23.4%
% inhibition male (individual replicates) R3 [2, 3]: -17.5%
% inhibition male (individual replicates) R4 [2, 3]: -53.8%
HitlevelM [2, 10]: 0
Activity [2, 7]: 0

Cc1ccc(N2C(N)=NC(N)=NC2(C)C)cc1Cl.Cl [TCMDC-137708]
Average inhibition female (%) [1, 3]: 15.0%
% inhibition female (individual replicates) R1 [1, 3]: 12.7%
% inhibition female (individual replicates) R3 [1, 3]: 7.1%
% inhibition female (individual replicates) R4 [1, 3]: 19.9%
HitlevelF [1, 9]: 0
Average inhibition male (%) [2, 3]: -13.6%
% inhibition male (individual replicates) R1 [2, 3]: 11.4%
% inhibition male (individual replicates) R3 [2, 3]: -5.0%
% inhibition male (individual replicates) R4 [2, 3]: -55.8%
HitlevelM [2, 10]: 0
Activity [2, 7]: 0

CCCCCc1ccc(N2C(N)=NC(N)=NC2(C)C)cc1.Cl [TCMDC-137709]
Average inhibition female (%) [1, 3]: 8.1%
% inhibition female (individual replicates) R1 [1, 3]: 15.2%
% inhibition female (individual replicates) R3 [1, 3]: -7.7%
% inhibition female (individual replicates) R4 [1, 3]: 22.0%
HitlevelF [1, 9]: 0
Average inhibition male (%) [2, 3]: 2.5%
% inhibition male (individual replicates) R1 [2, 3]: 18.2%
% inhibition male (individual replicates) R3 [2, 3]: 6.4%
% inhibition male (individual replicates) R4 [2, 3]: -27.8%
HitlevelM [2, 10]: 0
Activity [2, 7]: 0

CCCCCOc1ccc(N2C(N)=NC(N)=NC2(C)C)cc1.Cl [TCMDC-137711]
Average inhibition female (%) [1, 3]: 10.0%
% inhibition female (individual replicates) R1 [1, 3]: 16.6%
% inhibition female (individual replicates) R3 [1, 3]: -26.0%
% inhibition female (individual replicates) R4 [1, 3]: 23.4%
HitlevelF [1, 9]: 0
Average inhibition male (%) [2, 3]: -17.3%
% inhibition male (individual replicates) R1 [2, 3]: 6.1%
% inhibition male (individual replicates) R3 [2, 3]: -21.6%
% inhibition male (individual replicates) R4 [2, 3]: -48.5%
HitlevelM [2, 10]: 0
Activity [2, 7]: 0

CC(C)(C)c1ccc(N2C(N)=NC(N)=NC2(C)C)cc1.Cl [TCMDC-137713]
Average inhibition female (%) [1, 3]: 20.6%
% inhibition female (individual replicates) R1 [1, 3]: 16.4%
% inhibition female (individual replicates) R3 [1, 3]: 30.6%
% inhibition female (individual replicates) R4 [1, 3]: 16.4%
HitlevelF [1, 4]: 0
Average inhibition male (%) [2, 3]: -3.6%
% inhibition male (individual replicates) R1 [2, 3]: 17.2%
% inhibition male (individual replicates) R3 [2, 3]: 2.2%
% inhibition male (individual replicates) R4 [2, 3]: -36.5%
HitlevelM [2, 5]: 0

CCc1ccc(N2C(N)=NC(N)=NC2(C)C)cc1.Cl [TCMDC-137714]
Average inhibition female (%) [1, 3]: 7.9%
% inhibition female (individual replicates) R1 [1, 3]: 15.9%
% inhibition female (individual replicates) R3 [1, 3]: 0.5%
% inhibition female (individual replicates) R4 [1, 3]: 12.9%
HitlevelF [1, 9]: 0
Average inhibition male (%) [2, 3]: 9.1%
% inhibition male (individual replicates) R1 [2, 3]: 34.5%
% inhibition male (individual replicates) R3 [2, 3]: 9.3%
% inhibition male (individual replicates) R4 [2, 3]: -34.5%
HitlevelM [2, 10]: 0
Activity [2, 7]: 0

CCCC(C)c1ccc(N2C(N)=NC(N)=NC2(C)C)cc1.Cl (stereo not drawn) [TCMDC-137715]
% inhibition female (individual replicates) R1 [1, 6]: -4.9%
% inhibition female (individual replicates) R3 [1, 6]: 0.05%
% inhibition female (individual replicates) R4 [1, 6]: 1.4%
Average inhibition female (%) [1, 7]: -2.9%
% inhibition male (individual replicates) R1 [2, 6]: 8.4%
% inhibition male (individual replicates) R4 [2, 6]: -43.6%
Average inhibition male (%) [2, 7]: -6.3%

CN1CCN(CCNc2c3ccccc3nc3c2ccc2ccccc23)CC1.Cl [TCMDC-137723]
Average inhibition female (%) [1, 3]: 18.4%
% inhibition female (individual replicates) R1 [1, 3]: 9.6%
% inhibition female (individual replicates) R3 [1, 3]: 26.6%
% inhibition female (individual replicates) R4 [1, 3]: 23.3%
HitlevelF [1, 4]: 0
Average inhibition male (%) [2, 3]: -12.0%
% inhibition male (individual replicates) R1 [2, 3]: -27.6%
% inhibition male (individual replicates) R3 [2, 3]: -0.85%
% inhibition male (individual replicates) R4 [2, 3]: 0.03%
HitlevelM [2, 5]: 0

COc1ccc2nc(-c3ccccc3)cc(NCCCNc3cc(-c4ccccc4)nc4ccc(OC)cc34)c2c1.Cl [TCMDC-137734]
Average inhibition female (%) [1, 3]: 5.7%
% inhibition female (individual replicates) R1 [1, 3]: 14.1%
% inhibition female (individual replicates) R3 [1, 3]: -18.5%
% inhibition female (individual replicates) R4 [1, 3]: 23.4%
HitlevelF [1, 9]: 0
Average inhibition male (%) [2, 3]: 9.4%
% inhibition male (individual replicates) R1 [2, 3]: 15.3%
% inhibition male (individual replicates) R3 [2, 3]: -6.1%
% inhibition male (individual replicates) R4 [2, 3]: 18.2%
HitlevelM [2, 10]: 0
Activity [2, 7]: 0
